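Growth conditions: 96-well plates. Treatment: test compound, 48 hours, 5 concentrations. Analysis: linear interpolation between bracketing concentrations; unreached endpoints set to highest concentration. At the TGI there is no net growth.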

For 10 compounds, TGI results are on record in PubChem BioAssay (NCI).

Among the test systems are 786-0 renal; A498 renal; A549 NSCLC; CAKI-1 renal; DU-145 prostate; HL-60(TB) leukemia; HOP-92 NSCLC; HS 578T breast; MDA-MB-231 breast; OVCAR-5 ovarian; SK-MEL-28 melanoma; SNB-75 CNS; SW-620 colon.
Holding throughout (assay): NCI-60 cell line screen, 48 h

For `CCOP(=O)(OCC)/C(C#N)=C/c1nc[nH]c1C`, the TGI in the test with 786-0 renal, in the test on A498 renal, in the test on A549 NSCLC, with CAKI-1 renal, with DU-145 prostate and in the test on HL-60(TB) leukemia was greater than 100 µM each time. In addition, the TGI with HOP-92 NSCLC, with HS 578T breast, in the test on MDA-MB-231 breast, in the test with OVCAR-5 ovarian, in the test with SK-MEL-28 melanoma and with SNB-75 CNS was greater than 100 µM throughout. The TGI with SW-620 colon was greater than 100 µM.

As for `O=C1c2cccnc2S(=O)(=O)N1c1ccc(Br)cc1`, the TGI is greater than 100 µM in the test on 786-0 renal; greater than 100 µM with A498 renal; greater than 100 µM in the test on A549 NSCLC; greater than 100 µM with CAKI-1 renal; greater than 100 µM in the test with DU-145 prostate; 28.1 µM in the test on HL-60(TB) leukemia. For the same compound, the TGI in the test with HOP-92 NSCLC, with HS 578T breast, in the test on MDA-MB-231 breast, in the test with OVCAR-5 ovarian, with SK-MEL-28 melanoma and with SNB-75 CNS was greater than 100 µM each time. This compound returned a TGI in the test with SW-620 colon greater than 100 µM.

With `CC(=O)N1N=C(c2ccccc2)NC(=O)C1c1cc(C)c(O)c(C)c1` (stereo not given), the TGI with 786-0 renal was 31.7 µM; in the test on A498 renal, 67.2 µM; in the test on A549 NSCLC it was 66.1 µM; in the test on CAKI-1 renal it was greater than 100 µM; in the test with DU-145 prostate it was 57.5 µM; in the test on HL-60(TB) leukemia it was greater than 100 µM. For the same compound, the TGI in the test on HOP-92 NSCLC was 38.8 µM; in the test with HS 578T breast it was greater than 100 µM; in the test on MDA-MB-231 breast it was 46.3 µM; in the test with OVCAR-5 ovarian, greater than 100 µM; with SK-MEL-28 melanoma it was greater than 100 µM; with SNB-75 CNS, 37.5 µM. For the same compound, the TGI in the test on SW-620 colon was greater than 100 µM.

Take `C[C@]12CCC(=O)C=C1CC[C@@H]1[C@@H]2CC[C@]2(C)C(=O)/C(=C/c3ccc([N+](=O)[O-])cc3)C[C@@H]12`: the TGI with 786-0 renal was greater than 100 µM; with A498 renal, 48.9 µM; in the test on A549 NSCLC it was greater than 100 µM; in the test on CAKI-1 renal, greater than 100 µM; in the test with DU-145 prostate it was greater than 100 µM; with HL-60(TB) leukemia, greater than 100 µM. For the same compound, the TGI in the test on HOP-92 NSCLC, in the test on HS 578T breast, in the test on MDA-MB-231 breast, in the test with OVCAR-5 ovarian, with SK-MEL-28 melanoma and in the test on SNB-75 CNS was greater than 100 µM in each case. Also, the TGI in the test with SW-620 colon is greater than 100 µM.

Consider `c1ccc(CCCN2C3CCC2CN(CCOC(c2ccccc2)c2ccccc2)C3)cc1`, for which the TGI in the test with 786-0 renal came to 21.6 µM; in the test with A498 renal, 21.8 µM; in the test on A549 NSCLC it was 27.2 µM; with CAKI-1 renal it was 25.7 µM; with DU-145 prostate, 32 µM; with HL-60(TB) leukemia, 23.1 µM. Besides, the TGI in the test with HOP-92 NSCLC amounted to 25.5 µM; in the test on HS 578T breast, 33.7 µM; in the test on MDA-MB-231 breast, 21 µM; with OVCAR-5 ovarian, 25.8 µM; in the test on SK-MEL-28 melanoma, 28.2 µM; in the test on SNB-75 CNS it was 20.8 µM. For the same compound, the TGI with SW-620 colon stood at 44.8 µM.

For the compound `CCOC(=O)CCCN`, the TGI in the test with 786-0 renal, in the test on A498 renal, in the test on A549 NSCLC, in the test with CAKI-1 renal, in the test with DU-145 prostate and in the test on HL-60(TB) leukemia was greater than 100 µM throughout. Also, the TGI in the test on HOP-92 NSCLC, in the test with HS 578T breast, in the test on MDA-MB-231 breast, in the test on OVCAR-5 ovarian, in the test on SK-MEL-28 melanoma and with SNB-75 CNS was greater than 100 µM throughout. The TGI with SW-620 colon is greater than 100 µM.

For `CN(C)CC1CCC/C(=C\c2ccc(Cl)c(Cl)c2)C1=O` (stereo not given), the TGI with 786-0 renal is 3.42 µM; in the test on A498 renal, 26.9 µM; in the test with A549 NSCLC, 30.4 µM; with CAKI-1 renal, 7.7 µM; in the test with DU-145 prostate it was 23 µM; with HL-60(TB) leukemia, 4.06 µM. The TGI with HOP-92 NSCLC worked out at 13.4 µM; with HS 578T breast, 9.51 µM; in the test with MDA-MB-231 breast it was 10.9 µM; with OVCAR-5 ovarian, 37.4 µM; in the test with SK-MEL-28 melanoma, 11.4 µM; in the test on SNB-75 CNS, 21.2 µM. The TGI with SW-620 colon is greater than 29.3 µM.

For `COc1ccc(OC)c([N+](=O)[O-])c1-c1nc2sc(Cl)cn2c1/C=N/N=C(N)N`, the TGI in the test on 786-0 renal is greater than 100 µM; with A498 renal it was 33.7 µM; with A549 NSCLC, 58.3 µM; with CAKI-1 renal, 38.5 µM; in the test on DU-145 prostate it was 42.8 µM; in the test on HL-60(TB) leukemia it was 29 µM. Further, the TGI came out at 31.2 µM in the test with HOP-92 NSCLC; 51.7 µM in the test on HS 578T breast; 35.7 µM with MDA-MB-231 breast; 71.7 µM in the test on OVCAR-5 ovarian; 33.4 µM in the test with SK-MEL-28 melanoma; 24.9 µM in the test on SNB-75 CNS. This compound also gave a TGI in the test with SW-620 colon of 55 µM.

Turning to `COc1ccc(C2c3cc4c(cc3OC(N3CCOCC3)C2C)OCO4)cc1OC` (stereo not given), the TGI is 53.8 µM in the test on 786-0 renal; 43 µM in the test with A498 renal; greater than 85 µM in the test with A549 NSCLC; 26.4 µM in the test with CAKI-1 renal; greater than 79.7 µM in the test on DU-145 prostate; greater than 29.1 µM with HL-60(TB) leukemia. Also, the TGI is greater than 92.3 µM in the test with HOP-92 NSCLC; 22.1 µM in the test on HS 578T breast; greater than 100 µM in the test with MDA-MB-231 breast; greater than 100 µM with OVCAR-5 ovarian; greater than 100 µM in the test with SK-MEL-28 melanoma; 21.4 µM with SNB-75 CNS. The compound also yielded a TGI in the test on SW-620 colon greater than 100 µM.

In the case of `O=[N+]([O-])C1=Cc2c(O)ccc(O)c2C2OC=CC12` (stereo not given), the TGI with 786-0 renal was 32.6 µM; in the test with A498 renal it was 30.1 µM; in the test on A549 NSCLC, 43.4 µM; in the test on CAKI-1 renal it was 25.8 µM; in the test on DU-145 prostate, greater than 54.6 µM; in the test with HL-60(TB) leukemia it was greater than 30.4 µM. The TGI in the test with HOP-92 NSCLC is 58.8 µM; with HS 578T breast, 61.6 µM; with MDA-MB-231 breast it was 40.1 µM; with OVCAR-5 ovarian, 51.5 µM; in the test with SK-MEL-28 melanoma, greater than 74.5 µM; in the test on SNB-75 CNS, 49.5 µM. In the test with SW-620 colon, this compound yielded a TGI greater than 77.4 µM.
